# Experimental data from patent US20170334899A1, “AMINO-SUBSTITUTED ISOTHIAZOLES” (Bayer Pharma Aktiengesellschaft, priority 2014, published 2017).
# Tested on: human cervical tumor cell line HeLa (ATCC CCL-2)
# Test: SAC-Formation - Nocodazole-Induced Assay
# Type: cell-based
# Details: Homo sapiens, HeLa, 24 h, HeLa cells, nocodazole 0.1 μg/ml together with test compound, decrease of mitotic cells (phospho-histone H3 Ser10)
# Summary of the method: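 Loss of phospho-histone H3 Ser10-positive cells, counted against Hoechst-stained nuclei by high-content imaging, marked mitotic breakthrough. Compounds (0.005–20 μM, 0.5% DMSO) were co-dosed with 0.1 μg/ml nocodazole onto HeLa cells for 24 h at 37 °C. Curves were fitted with a four-parameter Hill equation.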
row,IC50 [nM],Structure (SMILES)
1,3100,"Cc1nsc(Nc2cnc(C(F)(F)F)cn2)c1C(=O)Nc1ccc(OCCCNCC(F)F)nc1 [Example 293, N-(6-{3-[(2,2-difluoroethyl)amino]propoxy}pyridin-3-yl)-3-methyl-5-{[5-(trifluoromethyl)pyrazin-2-yl]amino}-1,2-thiazole-4-carboxamide]"
2,28,"Cc1nsc(Nc2cnc(C(F)(F)F)cn2)c1C(=O)Nc1ccc(F)c(OCC2CCN(CC(F)F)C2)c1 (centres unmarked) [Example 316, N-(3-{[1-(2,2-difluoroethyl)pyrrolidin-3-yl]methoxy}-4-fluorophenyl)-3-methyl-5-{[5-(trifluoromethyl)pyrazin-2-yl]amino}-1,2-thiazole-4-carboxamide]"
3,1100,"Cc1nsc(Nc2cncc(C(F)(F)F)n2)c1C(=O)Nc1ccc(C(=O)N2CCN(CC(F)F)CC2)cc1 [Example 273, N-(4-{[4-(2,2-difluoroethyl)piperazin-1-yl]carbonyl}phenyl)-3-methyl-5-{[6-(trifluoromethyl)pyrazin-2-yl]amino}-1,2-thiazole-4-carboxamide]"
4,350,"Cc1nsc(Nc2cncc(C(F)(F)F)n2)c1C(=O)Nc1ccc(OCCO)nc1 [Example 276, N-[6-(2-hydroxyethoxy)pyridin-3-yl]-3-methyl-5-{[6-(trifluoromethyl)pyrazin-2-yl]amino}-1,2-thiazole-4-carboxamide]"
5,80,"Cc1nsc(Nc2cnc(C(F)(F)F)cn2)c1C(=O)Nc1ccc(OC2CCN(CCC(F)(F)F)C2)nc1 (centres unmarked) [Example 298, 3-methyl-5-{[5-(trifluoromethyl)pyrazin-2-yl]amino}-N-(6-{[1-(3,3,3-trifluoropropyl)pyrrolidin-3-yl]oxy}pyridin-3-yl)-1,2-thiazole-4-carboxamide]"
6,920,"Cc1nsc(Nc2cc(C#N)ccn2)c1C(=O)Nc1ccc(OC2CCN(CC(F)F)CC2)nc1 [Example 263, 5-[(4-cyanopyridin-2-yl)amino]-N-(6-{[1-(2,2-difluoroethyl)piperidin-4-yl]oxy}pyridin-3-yl)-3-methyl-1,2-thiazole-4-carboxamide]"
7,550,"COC(=O)CCc1cccc(NC(=O)c2c(C)nsc2Nc2cnc3ccccc3n2)c1 [Example 257, methyl 3-[3-({[3-methyl-5-(quinoxalin-2-ylamino)-1,2-thiazol-4-yl]carbonyl}amino)phenyl]propanoate]"
8,1900,"Cc1nsc(Nc2cnc3ccccc3n2)c1C(=O)Nc1cccc(NS(=O)(=O)C2CCN(CC(F)(F)F)C2)c1 (centres unmarked) [Example 289, 3-methyl-5-(quinoxalin-2-ylamino)-N-[3-({[1-(2,2,2-trifluoroethyl)pyrrolidin-3-yl]sulfonyl}amino)phenyl]-1,2-thiazole-4-carboxamide]"
9,140,"Cc1nsc(Nc2cncc(C(F)(F)F)n2)c1C(=O)Nc1ccc(C(=O)N2CCN(CCF)CC2)cc1 [Example 274, N-(4-{[4-(2-fluoroethyl)piperazin-1-yl]carbonyl}phenyl)-3-methyl-5-{[6-(trifluoromethyl)pyrazin-2-yl]amino}-1,2-thiazole-4-carboxamide]"
10,140,"Cc1nsc(Nc2cnc(C(F)(F)F)cn2)c1C(=O)Nc1ccc(OC2CCN(C(CF)CF)C2)nc1 (centres unmarked) [Example 313, N-(6-{[1-(1,3-difluoropropan-2-yl)pyrrolidin-3-yl]oxy}pyridin-3-yl)-3-methyl-5-{[5-(trifluoromethyl)pyrazin-2-yl]amino}-1,2-thiazole-4-carboxamide]"
11,35,"Cc1nsc(Nc2cnc(C(F)(F)F)cn2)c1C(=O)Nc1ccc(F)c(OC2CCN(CC(F)(F)F)CC2)c1 [Example 264, N-(4-fluoro-3-{[1-(2,2,2-trifluoroethyl)piperidin-4-yl]oxy}phenyl)-3-methyl-5-{[5-(trifluoromethyl)pyrazin-2-yl]amino}-1,2-thiazole-4-carboxamide]"
12,80,"Cc1nsc(Nc2cnc(C(F)(F)F)cn2)c1C(=O)Nc1ccc(OC2CCN(CC(F)(F)F)C2)nc1 (centres unmarked) [Example 297, 3-methyl-N-(6-{[1-(2,2,2-trifluoroethyl)pyrrolidin-3-yl]oxy}pyridin-3-yl)-5-{[5-(trifluoromethyl)pyrazin-2-yl]amino}-1,2-thiazole-4-carboxamide]"
13,99,"Cc1nsc(Nc2cnc(C(F)(F)F)cn2)c1C(=O)Nc1ccc(F)c(OCCCNCCC(F)(F)F)c1 [Example 307, N-(4-fluoro-3-{3-[(3,3,3-trifluoropropyl)amino]propoxy}phenyl)-3-methyl-5-{[5-(trifluoromethyl)pyrazin-2-yl]amino}-1,2-thiazole-4-carboxamide]"
14,140,"Cc1nsc(Nc2cnc(C(F)(F)F)cn2)c1C(=O)Nc1ccc(OCCNCCF)nc1 [Example 321, N-(6-{2-[(2-fluoroethyl)amino]ethoxy}pyridin-3-yl)-3-methyl-5-{[5-(trifluoromethyl)pyrazin-2-yl]amino}-1,2-thiazole-4-carboxamide]"
15,260,"Cc1nsc(Nc2cnc(C(F)(F)F)cn2)c1C(=O)Nc1ccc(C(=O)N2CCN(C)CC2)cc1 [Example 262, 3-methyl-N-{4-[(4-methylpiperazin-1 yl)carbonyl]phenyl}-5-{[5-(trifluoromethyl)pyrazin-2-yl]amino}-1,2-thiazole-4-carboxamide]"
16,510,"Cc1nsc(Nc2cnc(C(F)(F)F)cn2)c1C(=O)Nc1ccc(OCCNCC(F)F)nc1 [Example 305, N-(6-{2-[(2,2-difluoroethyl)amino]ethoxy}pyridin-3-yl)-3-methyl-5-{[5-(trifluoromethyl)pyrazin-2-yl]amino}-1,2-thiazole-4-carboxamide]"
17,88,"Cc1nsc(Nc2cnc(C(F)(F)F)cn2)c1C(=O)Nc1ccc(F)c(OCC2CCN(CCF)C2)c1 (centres unmarked) [Example 317, N-(4-fluoro-3-{[1-(2-fluoroethyl)pyrrolidin-3-yl]methoxy}phenyl)-3-methyl-5-{[5-(trifluoromethyl)pyrazin-2-yl]amino}-1,2-thiazole-4-carboxamide]"
18,670,"Cc1nsc(Nc2cncc(C(F)(F)F)n2)c1C(=O)Nc1ccc(C(=O)NC2CN(CC(F)(F)F)C2)cc1 [Example 280, 3-methyl-N-(4-{[1-(2,2,2-trifluoroethyl)azetidin-3-yl]carbamoyl}phenyl)-5-{[6-(trifluoromethyl)pyrazin-2-yl]amino}-1,2-thiazole-4-carboxamide]"
19,530,"CCNC(=O)c1cccc(NC(=O)c2c(C)nsc2Nc2ccc(C#N)cn2)c1 [Example 252, 5-[(5-cyanopyridin-2-yl)amino]-N-[3-(ethylcarbamoyl)phenyl]-3-methyl-1,2-thiazole-4-carboxamide]"
20,2400,"CCN1CCC(Oc2ccc(NC(=O)c3c(C)nsc3Nc3cc(C#N)ccn3)cn2)CC1 [Example 26, 5-[(4-Cyanopyridin-2-yl)amino]-N-{6-[(1-ethylpiperidin-4-yl)oxy]pyridin-3-yl}-3-methyl-1,2-thiazole-4-carboxamide]"
